Tests used:
Type in all cases: cell-based
Kasumi-1 = assay: Cell viability assay, Kasumi-1; settings: Homo sapiens, Kasumi-1, Acute myeloid leukemia
Description: (§1) Cells were seeded at a density of 5000 cells per well in 96-well assay plates and treated with test compounds following a 12-point 3-fold serial dilution. Three days later, cell viability was determined using the CellTiter-Glo assay kit according to the manufacturer's instructions. The dose-response curves were determined and IC50 values were calculated using the GraphPad Prism software following a nonlinear regression (least squares fit) method.
(§2) The IC50 value of each compound was determined as described in FIG. 4 and calculated using the GraphPad Prism 5.0 software.

NCI-H1703 = assay: Cell viability assay, NCI-H1703; settings: Homo sapiens, NCI-H1703, Non-small cell lung cancer
Description: as §1, §2

MCF-7 = assay: Cell viability assay, MCF-7; settings: Homo sapiens, MCF7, MCF-7, breast carcinoma
Description: as §1, §2

Karpas-422 = assay: Cell viability assay, Karpas-422; settings: Homo sapiens, Karpas-422, Diffuse large B-cell lymphoma
Description: as §1, §2

HL-60 = assay: Cell viability assay, HL-60; settings: Homo sapiens, HL-60, Acute myeloid leukemia
Description: as §1, §2

MM.1R = assay: Cell viability assay, MM.1R; settings: Multiple Myeloma
Description: as §1, §2

Pfeiffer = assay: Cell viability assay, Pfeiffer; settings: Homo sapiens, Diffuse large B-cell lymphoma
Description: as §1, §2

NOMO-1 = assay: Cell viability assay, NOMO-1; settings: Homo sapiens, NOMO-1, Acute monocytic leukemia
Description: as §1, §2

22Rv1 = assay: Cell viability assay, 22Rv1; settings: Homo sapiens, 22Rv1, Prostate carcinoma
Description: as §1, §2

WSU-DLCL2 = assay: Cell viability assay, WSU-DLCL2; settings: Homo sapiens, WSUDLCL2, WSU-DLCL2, Diffuse large B-cell lymphoma
Description: as §1, §2

HEL = assay: Cell viability assay, HEL; settings: Homo sapiens, Erythroleukemia
Description: as §1, §2

VCaP = assay: Cell viability assay, VCaP; settings: Homo sapiens, Prostate carcinoma
Description: as §1, §2

MOLM-13 = assay: Cell viability assay, MOLM-13; settings: Homo sapiens, MOLM-13, Acute monocytic leukemia
Description: as §1, §2

MV4; 11 = assay: Cell viability assay, MV4; 11; settings: Homo sapiens, 11, Acute monocytic leukemia
Description: as §1, §2

LK-2 = assay: Cell viability assay, LK-2; settings: Homo sapiens, LK-2, Non-small cell lung cancer
Description: as §1, §2

AMO-1 = assay: Cell viability assay, AMO-1; settings: Homo sapiens, AMO1, AMO-1, Multiple Myeloma
Description: as §1, §2

L-363 = assay: Cell viability assay, L-363; settings: Homo sapiens, L-363, Multiple myeloma
Description: as §1, §2

NCI-H520 = assay: Cell viability assay, NCI-H520; settings: Homo sapiens, NCI-H520, Non-small cell lung cancer
Description: as §1, §2

MM.1S = assay: Cell viability assay, MM.1S; settings: Homo sapiens, MM1.S, Multiple Myeloma
Description: as §1, §2

NCI-H929 = assay: Cell viability assay, NCI-H929; settings: Homo sapiens, NCI-H929, Multiple Myeloma
Description: as §1, §2

RPMI-8226 = assay: Cell viability assay, RPMI-8226; settings: Homo sapiens, RPMI-8226, Multiple myeloma
Description: as §1, §2

LNCaP cells = assay: LNCaP cell viability assay (CellTiter-Glo); settings: Homo sapiens; cell viability, LNCaP clone FGC, Prostate carcinoma (Table 4)
Procedure, shortened: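 LNCaP cells, 5000/well, exposed to compounds in 12-point 3-fold serial dilution (top 10 μM) for 3 days. Viability by CellTiter-Glo luminescence, normalized to untreated cells; IC50 by least-squares nonlinear regression.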

MEG-01 = assay: Cell viability assay, MEG-01; settings: Homo sapiens, MEG-01, Chronic myeloid leukemia
Description: as §1, §2

SU-DHL-1 = assay: Cell viability assay, SU-DHL-1; settings: Homo sapiens, SU-DHL-1, Diffuse large B-cell lymphoma
Description: as §1, §2

SK-BR-3 = assay: Cell viability assay, SK-BR-3; settings: Homo sapiens, SK-BR-3, breast carcinoma
Description: as §1, §2

IC50 (NCI-H1703): > 10000 nM
IC50 (MCF-7): 2390 nM
IC50 (Karpas-422): > 10000 nM
IC50 (HL-60): > 10000 nM
IC50 (MM.1R): 13.2 nM
IC50 (22Rv1): 1680 nM
IC50 (VCaP): 723 nM
IC50 (MOLM-13): > 10000 nM
IC50 (MV4; 11): > 10000 nM
IC50 (NCI-H520): 5380 nM
IC50 (MM.1S): 12.8 nM
IC50 (NCI-H929): 15.6 nM
IC50 (RPMI-8226): 10.3 nM
IC50 (LNCaP cells): 4170 nM
IC50 (SU-DHL-1): > 1000 nM
IC50 (SK-BR-3): > 10000 nM
Compound: CNC(=O)N1CCc2c(c(N3CCCc4cc(-c5cnn(C)c5)c(C(F)F)cc43)nn2C2CCOCC2)C1 [GNE-781, reference compound]
IC50 (Kasumi-1): 346 nM
IC50 (Pfeiffer): 132 nM
IC50 (NOMO-1): > 10000 nM
IC50 (WSU-DLCL2): 14 nM
IC50 (HEL): > 10000 nM
IC50 (LK-2): 2710 nM
IC50 (AMO-1): 138 nM
IC50 (L-363): > 1000 nM
IC50 (MEG-01): > 10000 nM
